Results published in publication PMC12684391, “Mechanistic insights into the monotherapy and combination potential of FEN1 inhibition in cancer therapy” (Nucleic Acids Research, 2025).

Tests used:
XPG = molecular target: T1, XPG (Homo sapiens, UniProt P28715); experiment: Fluorescence-based nuclease activity assay, XPG; format: biochemical; conditions: n = 10, SD = 0.86; cognate substrate
T1 construct: XPG (1-1186); Strep-tag (C); made in house; host or cells: Sf9 insect cells
Method: (§1) MSC778 was dissolved in dimethyl sulphoxide (DMSO) to give a 10 mM stock. FEN1/EXO1: compound was dispensed into black 384-shallow well microplates (Greiner #784076). The compound was dispensed as an 11-point dose response with a 3-fold serial dilution from a top concentration of 10 mM (to give a final in-assay concentration of 100 µM). GEN1/XPG: MSC778 was dispensed into black 1536-well plates (Greiner #782076). The compound was dispensed as a 20-point dose response with a 3-fold serial dilution from a top concentration of 10 mM (to give a final in-assay concentration of 100 µM). The volume of DMSO was adjusted to ensure that each well contained 1% (v/v) DMSO in the final assay. Control wells containing DMSO alone or inhibitor at sufficient concentration to cause complete inhibition of the reaction were also included. […]
(§2) 5 µl (FEN1/EXO1) or 3 µl per well (GEN1/XPG) of stop buffer (20 mM Tris pH 7.5, 300 mM EDTA) was added to all wells, then the plates were read on the CLARIOstar Plus (BMG LABTECH Ltd.) using the Fluorescein (FITC) wavelengths (Ex 483 ± 14, Em 530 ± 30, Dichroic auto/502.5) and auto focal height/gain settings.
(§3) All data analysis was carried out using Genedata Screener software. IC50 values were calculated using the SmartFit function.

EXO1 = molecular target: T2, EXO1 (Homo sapiens, UniProt Q9UQ84); experiment: Fluorescence-based nuclease activity assay, EXO1; format: biochemical; conditions: n = 3, SD = 223; cognate substrate
T2 construct: EXO1 (1-846); purchased Peak Proteins, Macclesfield, UK
T2 sequence (Q9UQ84 whole entry): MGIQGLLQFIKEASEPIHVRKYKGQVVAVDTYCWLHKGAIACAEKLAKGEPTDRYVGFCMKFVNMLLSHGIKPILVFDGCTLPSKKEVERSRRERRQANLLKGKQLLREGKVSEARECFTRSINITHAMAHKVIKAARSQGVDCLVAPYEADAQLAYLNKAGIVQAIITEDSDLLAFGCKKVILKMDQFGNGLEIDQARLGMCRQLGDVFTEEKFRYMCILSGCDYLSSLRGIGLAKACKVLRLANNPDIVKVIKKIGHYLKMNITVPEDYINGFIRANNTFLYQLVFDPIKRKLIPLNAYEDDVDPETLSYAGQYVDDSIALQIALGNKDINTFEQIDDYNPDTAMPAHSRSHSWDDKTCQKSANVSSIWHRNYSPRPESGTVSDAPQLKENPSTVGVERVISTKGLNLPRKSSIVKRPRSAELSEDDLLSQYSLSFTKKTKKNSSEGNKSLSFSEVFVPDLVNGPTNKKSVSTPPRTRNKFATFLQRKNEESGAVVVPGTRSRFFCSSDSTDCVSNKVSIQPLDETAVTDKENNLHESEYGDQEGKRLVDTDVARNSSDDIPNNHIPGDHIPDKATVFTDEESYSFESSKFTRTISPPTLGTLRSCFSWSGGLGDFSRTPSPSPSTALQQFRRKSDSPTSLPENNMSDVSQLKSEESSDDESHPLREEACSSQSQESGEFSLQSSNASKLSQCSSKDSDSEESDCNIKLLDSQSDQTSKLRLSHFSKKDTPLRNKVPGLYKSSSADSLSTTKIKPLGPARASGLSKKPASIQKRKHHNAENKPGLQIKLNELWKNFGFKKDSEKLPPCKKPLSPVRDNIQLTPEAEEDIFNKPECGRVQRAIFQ
Method: as §1, §2, §3

[1] = test system: DLD-1, DLD-1 BRCA2KO, SUM149PT, MDA-MB-436 cells; experiment: Flow cytometric analysis of apoptosis (annexin V/PI); format: cell-based; conditions: 1 μM, 72 h
Method: (§4) Apoptosis was measured using annexin V and propidium iodide (PI) staining using an Annexin V-fluorescein isothiocyanate (FITC) apoptosis detection kit (Thermo Fisher Scientific, V13242) according to manufacturer’s instructions.
(§5) Briefly, cells were cultured in six-well plates and treated with FEN1 inhibitor at indicated concentrations for 72 h. The supernatant and adherent cells were collected and washed twice with ice-cold PBS, then re-suspended in 100 µl of 1× binding buffer. Annexin V-FITC conjugate (5 µl) and PI (1 µl) were added, and the cells were incubated at room temperature for 15 min in the dark. After addition of 300 µl of 1× binding buffer, the cells were analyzed using a flow cytometer (CytoFLEX, Beckman).

U-2 OS cells = experiment: as above; format: cell-based; conditions: 0.1 μM, 72 h
Method: as §4, §5

[2] = test system: EWS cells (MHH-ES-1, RD-ES); experiment: as above; format: cell-based; conditions: 0.1 μM, 72 h
Method: as §4, §5

NanoLuc-FEN1 = molecular target: T3, NanoLuc-FEN1 (Homo sapiens, UniProt P39748); experiment: NanoBRET cellular target engagement assay in HEK-293 cells; format: cell-based; conditions: more potent than MSC781
T3 construct: host or cells: HEK-293
T3 sequence (P39748 whole entry): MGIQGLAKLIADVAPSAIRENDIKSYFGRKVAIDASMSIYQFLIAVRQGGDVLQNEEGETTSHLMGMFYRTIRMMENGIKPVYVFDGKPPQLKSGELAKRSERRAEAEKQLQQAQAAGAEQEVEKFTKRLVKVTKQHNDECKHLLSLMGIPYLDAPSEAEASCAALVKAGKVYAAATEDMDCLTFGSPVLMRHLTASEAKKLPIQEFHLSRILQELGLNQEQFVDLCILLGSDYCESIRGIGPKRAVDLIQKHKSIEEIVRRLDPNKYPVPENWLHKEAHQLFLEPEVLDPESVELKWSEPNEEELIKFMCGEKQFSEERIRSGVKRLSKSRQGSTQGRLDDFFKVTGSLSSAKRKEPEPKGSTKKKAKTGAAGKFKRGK
Method: The NanoBRET™ assay was set-up and performed by Promega, Madison, USA [40]. The tracer compound (“tracer 6”) was synthesized based on an in-house compound. A NanoLuc®-FEN1 expression plasmid was transiently transfected into HEK-293 cells and 20 µl of subsequent cell/DNA suspension dispensed into wells of 384-well assay plates. Tracer 6 (final concentration 125 nM) and test compounds (10 step 1:3 dilution from a top concentration of 10 µM) in 100% DMSO were dispensed with a Echo Labcyte (Beckman Coulter) in technical duplicates.
To induce NanoLuc activity, 10 µl of 3× detection substrate NanoBRET™ Nano-GLO® Live Cell Solution in OptiMEM with digitonin (final concentration 150 µg/ml) were added per well. Kinetics were followed by luminescence multimode reader (DonorEm 450nm/AcceptorEm 610 nm) for 1 h. BRET ratios were calculated and resulting mBRET values were graphed versus compound concentrations and fitted to a nonlinear regression curve (four parameters) to determine IC50 values.
In this assay, NanoBRET occurs between a fluorescent moiety (acceptor) on a tracer molecule and the NanoLuc tag (donor) on FEN1 that are in close proximity.

GEN1 = molecular target: T4, GEN1 (Homo sapiens, UniProt Q17RS7); experiment: Fluorescence-based nuclease activity assay, GEN1; format: biochemical; conditions: n = 11, SD = 569; cognate substrate
T4 construct: Truncated GEN1 (1-527) was expressed in insect cells; Strep-tag (implied by Streptrap column); made in house; host or cells: insect cells
T4 sequence (Q17RS7 1-527): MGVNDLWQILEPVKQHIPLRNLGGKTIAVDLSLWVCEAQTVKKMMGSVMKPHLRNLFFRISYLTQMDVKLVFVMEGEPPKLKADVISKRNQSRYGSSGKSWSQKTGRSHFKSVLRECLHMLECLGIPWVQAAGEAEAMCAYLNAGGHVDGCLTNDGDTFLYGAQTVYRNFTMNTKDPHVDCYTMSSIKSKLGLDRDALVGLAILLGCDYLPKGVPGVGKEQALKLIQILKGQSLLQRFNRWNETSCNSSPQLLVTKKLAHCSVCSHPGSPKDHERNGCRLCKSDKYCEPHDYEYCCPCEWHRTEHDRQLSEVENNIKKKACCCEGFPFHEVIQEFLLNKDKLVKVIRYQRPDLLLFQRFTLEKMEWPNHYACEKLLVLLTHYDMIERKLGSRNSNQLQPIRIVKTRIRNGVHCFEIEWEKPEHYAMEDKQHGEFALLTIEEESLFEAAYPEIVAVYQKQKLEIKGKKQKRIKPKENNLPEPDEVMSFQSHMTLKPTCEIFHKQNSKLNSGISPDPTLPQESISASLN
Method: as §1, §2, §3

T1 sequence (P28715 whole entry): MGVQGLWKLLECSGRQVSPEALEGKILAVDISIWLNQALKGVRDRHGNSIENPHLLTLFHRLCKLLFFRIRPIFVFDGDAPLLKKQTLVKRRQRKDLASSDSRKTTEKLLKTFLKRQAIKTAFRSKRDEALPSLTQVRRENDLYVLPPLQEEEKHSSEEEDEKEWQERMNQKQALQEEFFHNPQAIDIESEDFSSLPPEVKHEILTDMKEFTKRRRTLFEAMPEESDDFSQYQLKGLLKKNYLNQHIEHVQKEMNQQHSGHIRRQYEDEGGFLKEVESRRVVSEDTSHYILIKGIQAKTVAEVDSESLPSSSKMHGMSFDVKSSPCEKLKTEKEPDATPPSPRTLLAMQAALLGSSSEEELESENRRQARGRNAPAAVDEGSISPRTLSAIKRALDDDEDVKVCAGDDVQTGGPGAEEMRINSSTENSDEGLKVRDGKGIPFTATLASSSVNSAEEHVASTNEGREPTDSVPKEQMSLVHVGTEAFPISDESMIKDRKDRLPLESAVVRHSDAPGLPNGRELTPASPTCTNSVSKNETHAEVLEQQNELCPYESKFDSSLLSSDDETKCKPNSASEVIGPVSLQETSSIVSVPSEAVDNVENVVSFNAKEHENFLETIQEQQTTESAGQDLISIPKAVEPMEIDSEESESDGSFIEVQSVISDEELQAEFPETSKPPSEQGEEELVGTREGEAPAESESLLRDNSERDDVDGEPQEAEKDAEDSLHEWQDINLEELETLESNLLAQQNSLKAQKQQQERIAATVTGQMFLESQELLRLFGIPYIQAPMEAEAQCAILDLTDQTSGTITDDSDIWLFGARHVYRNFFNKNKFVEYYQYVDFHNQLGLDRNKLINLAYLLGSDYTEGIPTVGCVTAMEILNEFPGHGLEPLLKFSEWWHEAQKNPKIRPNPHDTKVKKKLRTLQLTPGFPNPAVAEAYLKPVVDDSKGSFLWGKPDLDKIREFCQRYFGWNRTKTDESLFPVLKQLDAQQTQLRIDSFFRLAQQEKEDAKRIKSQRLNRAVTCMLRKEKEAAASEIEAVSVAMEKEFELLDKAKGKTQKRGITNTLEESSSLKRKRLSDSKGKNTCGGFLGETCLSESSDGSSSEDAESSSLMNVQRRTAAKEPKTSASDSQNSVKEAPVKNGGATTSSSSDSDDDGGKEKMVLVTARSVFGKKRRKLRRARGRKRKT

C[C@H](Oc1nn2c(c(O)c1=O)C(=O)N1CCOC[C@@H]1C2)c1ccc2ccc(Cl)cc2c1 [MSC778]
IC50 (XPG): 0.218 µM | IC50 (EXO1): 0.871 µM | Induction of cell death [1]: induced cell death by apoptosis | Induction of apoptotic cell death (U-2 OS cells): not | Induction of cell death [2]: induced apoptotic cell death | NanoBRET potency relative to MSC781 (NanoLuc-FEN1): 23 fold | IC50 (GEN1): 1.66 µM
